Measurements as given in ChEMBL document CHEMBL1151894, “Novel immunoconjugates comprised of streptonigrin and 17-amino-geldanamycin attached via a dipeptide-p-aminobenzyl-amine linker system” (Bioorg Med Chem Lett, 2009).

Key:
Assay type in all cases: functional, cell-based
[1] = system: CAKI-1; assay: Cytotoxicity against CD30 deficient and CD70 expressing human Caki1 cells after 96 hrs by resazurin conversion assay; conditions: CAKI-1, 96 h
[2] = Cytotoxicity against CD30 expressing and CD70 deficient human L540cy cells after 96 hrs by resazurin conversion assay
[3] = system: KARPAS-299; assay: Cytotoxicity against CD30 expressing and CD70 deficient human KARPAS299 cells after 96 hrs by resazurin conversion assay; conditions: KARPAS-299, 96 h

`COC1=C(N)C(=O)c2nc(-c3nc(C(=O)O)c(C)c(-c4ccc(OC)c(OC)c4O)c3N)ccc2C1=O` [STREPTONIGRIN] showed an IC50 [1] of 400 pM, an IC50 [2] of 800 pM and an IC50 [3] of 400 pM.
